Laboratory results from patent US20140248358A1, “Therapeutic Nanoparticles Comprising a Therapeutic Agent and Methods of Making and Using Same” (BIND Therapeutics, Inc., priority 2012, published 2014).
In brackets after ≈: the same amount, converted by molar mass. Counter-ions that a name gives are not always drawn. Like-named read-outs stand apart in the source and are kept apart here.

Experiments:
[1] = hydrophobic acid; cited from earlier work
[2] = cited from earlier work
[3] = Solubility of dasatinib in solvents, quantified using HPLC; type: physicochemical; settings: for solubility: organic solvent or mixture, read-out: Dasatinib solubility (mg/mL, by HPLC)
From the text: The solubility of dasatinib in benzyl alcohol, ethyl acetate, and mixtures of oleic acid and benzyl alcohol were quantified using HPLC.

[4] = Stability of dasatinib in release buffer at 37° C.
[5] = protonatable nitrogen-containing therapeutic agent

SMILES | log P [1] | pKa ([2]; hydrophobic acid) | other results
O=C(O)c1ccc2ccccc2c1O [1-hydroxy-2-naphthoic acid] | 2.97 | 2-3 | 
C=C1CC[C@@H](OS(=O)(=O)O)C/C1=C/C=C1\CCC[C@]2(C)[C@@H]([C@H](C)CCCC(C)C)CC[C@@H]12 [Vitamin D3-sulfate] |  | −1.5 | 
CC(C)CCC[C@@H](C)[C@H]1CC[C@H]2[C@@H]3CC=C4C[C@@H](OS(=O)(=O)O)CC[C@]4(C)[C@H]3CC[C@]12C [cholesteryl sulfate] |  | −1.4 | 
Cc1nc(Nc2ncc(C(=O)Nc3c(C)cccc3Cl)s2)cc(N2CCN(CCO)CC2)n1 [dasatinib] |  |  | solubility ([3]; 3% oleic acid in benzyl alcohol, 3% Oleic Acid in BA): 16.8 mg/mL (≈ 34.5 mM); solubility ([3]; 6% oleic acid in benzyl alcohol, 6% Oleic Acid in BA): 25.2 mg/mL (≈ 51.6 mM); solubility ([3]; 9% oleic acid in benzyl alcohol, 9% Oleic Acid in BA): 29.8 mg/mL (≈ 61.1 mM); improvement of solubility of dasatinib ([3]; benzyl alcohol doped with oleic acid vs benzyl alcohol): 2-3 fold; solubility ([3]; solvent BA (benzyl alcohol)): 9.45 mg/mL (≈ 19.4 mM); solubility ([3]; solvent EA (ethyl acetate)): 0.32 mg/mL (≈ 0.656 mM); stability in release buffer [4]: degraded after 24 hours; pKa [2, 5]: 7.07
C[C@H](CCC(=O)O)[C@H]1CC[C@H]2[C@@H]3CC[C@@H]4C[C@H](O)CC[C@]4(C)[C@H]3C[C@H](O)[C@]12C [deoxycholic acid] | 3.79 | 4.65 | 
CCCCCCCC/C=C\CCCCCCCC(=O)OC[C@H](COP(=O)(O)O)OC(=O)CCCCCCC/C=C\CCCCCCCC [dioleoyl phosphatidic acid] |  | ~2 | 
CCCCCCCCCCCCc1ccc(S(=O)(=O)O)cc1 [dodecylbenzenesulfonic acid] | 6.6 | −1.8 | 
CCCCCCCCCCCCOS(=O)(=O)O [dodecylsulfuric acid] | 4.5 | −0.09 | 
Cc1ccc(NC(=O)c2ccc(CN3CCN(C)CC3)cc2)cc1Nc1nccc(-c2cccnc2)n1 [imatinib, reference compound] |  |  | pKa [2, 5]: 8.38
O=S(=O)(O)c1cccc2c(S(=O)(=O)O)cccc12 [naphthalene-1,5-disulfonic acid] | 1.3 | −2 | 
O=S(=O)(O)c1ccc2ccccc2c1 [naphthalene-2-sulfonic acid] | 2.1 | −1.8 | 
CCCCCCCC/C=C\CCCCCCCC(=O)O [oleic acid] | 6.78 | 4-5 | 
O=C(O)c1cc2ccccc2c(Cc2c(O)c(C(=O)O)cc3ccccc23)c1O [pamoic acid] |  | 2.4 | 
CCN(CC)CCNC(=O)c1c(C)[nH]c(/C=C2\C(=O)Nc3ccc(F)cc32)c1C [sunitinib, reference compound] |  |  | pKa [2, 5]: 7.07
CC[C@]1(O)C[C@H]2CN(CCc3c([nH]c4ccccc34)[C@@](C(=O)OC)(c3cc4c(cc3OC)N(C=O)[C@H]3[C@@](O)(C(=O)OC)[C@H](OC(C)=O)[C@]5(CC)C=CCN6CC[C@]43[C@@H]65)C2)C1 [vincristine, reference compound] |  |  | pKa [2, 5]: 7.08
